Measurements: the SangsterLogP compilation

Row | logP | Structure (SMILES)
1 | 3.21 | CCC(=O)OCCOc1ccc(-c2ccncc2)c(C)n1
2 | 2 | CC(=O)OCCNc1ccc(-c2ccncc2)cn1
3 | 2.87 | CCC(=O)OCCCNc1ccc(-c2ccncc2)cn1
4 | 3.74 | CC(=O)COC(C)CNc1ccc(-c2ccccc2)c(C)n1 (stereo not given)
5 | 2.39 | CCC(=O)N1CCN(c2ccc(-c3ccncc3)cn2)CC1
6 | 4.08 | CC(=O)N1CCN(c2ccc(-c3ccccc3)c(C)n2)CC1
7 | 2.48 | CC(=O)OCCCOc1ccc(-c2ccncc2)cn1
8 | 4 | CC(=O)OCCOc1ccc(-c2ccccc2)c(C)n1
9 | 2.59 | CC(=O)OCCNc1ccc(-c2ccncc2)c(C)n1
10 | 3.07 | CCC(=O)OCCCOc1ccc(-c2ccncc2)cn1
11 | 2.04 | CC(=O)N1CCN(c2ccc(-c3ccncc3)cn2)CC1
12 | 2.44 | CC(=O)OCCN(CCOC(C)=O)c1ncc(-c2ccncc2)cc1C#N
13 | 2.58 | O=C(OCCNc1ccc(-c2ccncc2)cn1)c1cccnc1
14 | 2.91 | CC(=O)OCCCNc1ccc(-c2ccncc2)c(C)n1
15 | 2.51 | CC(=O)OCC(COc1ncc(-c2ccncc2)cc1C#N)OC(C)=O (stereo not given)
16 | 3.84 | O=C(OCCNc1ccc(-c2ccncc2)cn1)c1ccccc1
17 | 2.42 | CC(=O)OCCCNc1ccc(-c2ccncc2)cn1
18 | 1.92 | CC(=O)OCCOc1ccc(-c2ccncc2)cn1
19 | 4.06 | O=C(OCCCNc1ccc(-c2ccncc2)cn1)c1ccccc1
20 | 2.47 | CCC(=O)OCCNc1ccc(-c2ccncc2)cn1
